The subject of test [1] is mouse oocytes with capacitated wild-type sperm. In words: In vitro fertilization. It is filed as cell-based. How it is done: In vitro fertilization: On the day of preparation, sperm were capacitated for 90 min in HTF medium (EmbryoMax Human Tubal Fluid; Merck Millipore). 100 μl drops of HTF were covered with medium/oil mixture (HTF mixed 1:1 with mineral oil), and 10^5 sperm were added to each drop. Cumulus-enclosed oocytes were prepared from the oviducts of superovulated females and added to the drops. […] The number of 2-cell stages was evaluated after 24 hr.

The test system of test [2] is wild type C57B1/6 male mice. Briefly: Imiquimod-induced type 17 skin inflammation, topical treatment. It is filed as in vivo, mouse. As to the method: Wild type C57B1/6 male mice 8-10 week old were purchased from Jackson labs. A 7 mm diameter circle was shaved and treated with Nair on the flank. Baseline ear thickness was measured. For 5 days, mice received daily treatment of 30 mg of 5% imiquimod cream (Taro) to each ear and to the 7 mm area on the flank. Ear thickness was recorded on days 3 and 5 to ensure peak inflammation had occurred. Mice were then randomized into three cohorts: vehicle, LRE1, and Clobetasol. […] Treatment with imiquimod was continued during this period as above. Ear thickness was recorded every day before the first dose of drug. On day 11, all mice were euthanized. A 7 mm punch biopsy was collected from the flank and both ears were removed. Skin was stored in RNAlater (Sigma) for qPCR or 10% formalin for immunohistochemistry.
For tissue, RNA was isolated according to specifications of the RNA easy plus universal mini kit (Qiagen). Tissue was homogenized using stainless steel beads in a bead beater. For frozen cell pellets, RNA was isolated according to specifications of the RNA easy plus mini kit (Qiagen). Samples were homogenized using Qiashredder columns (Qiagen). RNA quality control was performed using a nanodrop spectrophotometer. cDNA was made using the high-capacity rna-to-cdna kit (thermo fischer). The applied biosystems power SYBR green PCR master mix was used for qPCR. 40 cycles with annealing temperatures of 60 degrees celsius and a melting curve were performed using the QuantStudio 6 real-time PCR instrument (thermo fischer). Delta delta CT analysis was performed to determine relative transcription amongst samples normalized to GAPDH.

Another test concerns human sperm. In words: Acrosome reaction assay. In kind it is cell-based. As to conditions: 5 μM Example 1 or 10 nM Example 133; 10 μM progesterone. How it is done: For analysis of acrosomal exocytosis, 100 μl of 1×10^7 sperm/ml were capacitated for 90 minutes in TYH buffer supplemented with 3 mg/ml BSA and 25 mM NaHCO3 (mouse sperm) or HTF buffer supplemented with […] HSA and 25 mM NaHCO3 (human sperm). sAC inhibitors were added with capacitating buffer; 0.1% DMSO was used as vehicle control. Acrosome reaction was induced by incubating mouse sperm with 50 mouse solubilized zonae pellucidae for 15 minutes at 37° C., or human sperm with 10 μM progesterone for 30 minutes at 37° C. The sperm suspensions were sedimented by centrifugation at 2,000×g for 5 minutes and the sedimented sperm were resuspended in 100 μl PBS buffer. Samples were air-dried on microscope slides and fixed for 30 minutes in 100% ethanol at room temperature (RT). For acrosome staining, mouse and human sperm were incubated for 30 minutes in the dark with 5 μg/ml PNA-FITC or 5 μg/ml PSA-FITC, respectively, and counterstained with 2 μg/ml DAPI. After curing, slides were analyzed using a Zeiss LSM 880 Laser Scanning Confocal Microscope; images were captured with two photomultiplier and one Gallium Arsenide Phosphide detector using ZEN Imaging software. For each condition, at least 600 cells were analyzed using ImageJ 1.52.

Each structure is given as a SMILES string.

As to `Cc1c(Cc2ccccc2)c(-c2cc(Cl)nc(N)n2)nn1C` [Example 1, 4-(4-benzyl-1,5-dimethyl-pyrazol-3-yl)-6-chloro-pyrimidin-2-amine], the “amount of 2-cell stage oocytes” value in test [1] (5 μM, control 30%) was determined as 10%. Moreover, in test [1] (50 μM), the fertilization in vitro result was “fully blocked fertilization”. Also, in test [2] (applied at the same time as imiquimod, N=5), the “inflammation in the ears measured by ear calipers” value was “reduce the inflammation”. In addition, the “skin inflammation (ear thickness)” value in test [2] (imiquimod 6 days, then continued imiquimod plus topical twice a day: LRE1 3%, Example 1 […], Clobetasol 0.05%) is “significant reduction in skin inflammation”. In test [2] (imiquimod for one week, then imiquimod plus compound, over 4 days, N=5), the reduction in inflammation came out at 50%.

As for `Nc1nc(Cl)cc(-c2nn(C(F)F)cc2Cc2ccccc2OCCN2CCOC[C@H]2CO)n1` [Example 133], the “blocking acrosome reaction induced by progesterone” value in the test with human sperm is on record as “more potent than Example 1”.

These data come from patent US20240239774A1, “SOLUBLE ADENYLYL CYCLASE (SAC) INHIBITORS AND USES THEREOF” (Cornell University, priority 2021, published 2024).
